Results reported in US20080188508A1, “Methods and Therapies for Potentiating a Therapeutic Action of an Opioid Receptor Agonist and Inhibiting and/or Reversing Tolerance to Opioid Receptor Agonists” (priority 2007, published 2008).

Key:
[1] = dose of AM-251 used in these experiments; Trang et al. Pain 2006; cited from earlier work
Sprague Dawley rats = test system: Sprague Dawley rats
Description: Experiments were performed in accordance with guidelines of the Canadian Council on Animal Care using protocols approved by the University Animal Care Committee. Adult male Sprague Dawley rats (200-250 grams) (Charles River, Quebec) were housed in separate cages and maintained on a 12 hour light/12 hour dark cycle with access to food and water ad libitum.
Animals were anaesthetized with halothane (4%) and implanted with an indwelling intrathecal catheter. A small puncture was made in the atlanto-occipital membrane and a polythene catheter (PE-10; 7.5 cm long) inserted caudally so that the tip rested on the lumbar enlargement of the spinal cord. The rostral end was exteriorized to facilitate drug administration. Surgical wounds were closed with sutures and animals allowed to recover for one week. Animals showing signs of forelimb or hindlimb paralysis were excluded from experiments. Drugs were injected in a 10 μl volume (i.t.) followed by 10 μl of 0.9% saline to flush the catheter.
Response to an acute thermal nociceptive stimulus was assessed in rats using the tail-flick test. Radiant heat was applied to the dorsal surface of the tail using an analgesic meter and the time latency for removal of the tail from the stimulus was recorded. […] A cutoff of 10 seconds was used in both studies to prevent tissue injury.
Response to an acute mechanical nociceptive stimulus was assessed using the paw-pressure test. Using an air-filled inverted syringe, pressure was gradually applied to the dorsal surface of the hindpaw until a paw withdrawal response was observed and the value (mmHg) recorded. A cut-off of 300 mmHg was used to prevent tissue injury.
Tail-flick and paw-pressure nociceptive tests were performed both before and 30 minutes after drug injection. […] Nociceptive testing was performed both before and 30 minutes after each injection.
The day following ED50 testing, spinal cords from animals were processed for CGRP immunohistochemical staining as described infra.
Tail-flick and paw-pressure values were converted to a maximum percentage effect (M.P.E.): M.P.E.=100×[post-drug response−baseline response]/[maximum response−baseline response]. Data in the figures are expressed as mean±s.e.mean. ED50 values were determined using a non-linear regression analysis (Prism 2, GraphPad Software Inc., San Diego, Calif., USA). Statistical significance (p<0.05) was determined using a one-way analysis of variance (ANOVA) followed by a Student Newman-Keuls post hoc test for multiple comparisons between groups.

[2] = test system: CGRP-immunoreactive neurons in adult rat dorsal root ganglion cultures
Description: In this method, rats were decapitated and DRGs removed aseptically from the cervical, thoracic, lumbar, and sacral regions of the spinal cord. […] DRGs were minced, digested with 0.25% collagenase (Calbiochem) in Ham's F12 Medium (GIBCO/BRL) for 90 minutes at 37° C., and then trypsinized (0.25%) (GIBCO/BRL) for 1.5 hours at 37° C. Next, the tissues were triturated with a 19 gauge syringe in Dulbecco's Modified Eagle Medium (DMEM, GIBCO/BRL) containing 1% HEPES buffer, penicillin/streptomycin (1:100), and 10% Fetal Bovine Serum (GIBCO/BRL). Samples were then centrifuged at 500 g for 10 minutes. The resulting pellet was resuspended with DMEM and filtered through a cell strainer (70 μm, Falcon). DRG cells were seeded in a poly-D-lysine coated 96-well culture plate (Falcon) at a density of 5×10^4 cells/well and incubated at 37° C. with 5% CO2 and 95% O2 for the duration of the experiment. […]
To examine the effects of drug treatment on CGRP-immunoreactivity in the cultured DRG cells, the number of CGRP immunopositive cells was counted using an inverted phase microscope (Olympus CX2). […] The field of view in which CGRP-IR cells were counted measured 1 mm^2. […]
For the cultured DRG studies, the mean±s.e.mean of CGRP-immunopositive cells was obtained from 4 wells per treatment group in each of 3 separate cell cultures. Data are expressed as a percent of saline control wells. […]

[3] = i.t. morphine 15 μg, first injection, both tail-flick and paw-pressure test

Cc1c(C(=O)NN2CCCCC2)nn(-c2ccc(Cl)cc2Cl)c1-c1ccc(I)cc1 [AM-251, 1-(2,4-dichlorophenyl)-5-(4-iodophenyl)-4-methyl-N-1-piperidinyl-1H-pyrazole-3-carboxamide]
effect on anandamide-induced antinociception [1]: selectively block | influence on acute morphine-induced analgesia [1]: no influence | effect on basal nociceptive responses (Sprague Dawley rats; AM-251 3.2 μg administered alone over 5 days): did not have an effect | morphine ED50 value versus chronic saline treatment (Sprague Dawley rats; AM-251 3.2 μg alone for 5 days): did not significantly alter | effect on basal nociceptive response (Sprague Dawley rats; AM-251 3.2 μg in the absence of morphine on days 6-10): no effect | effect on the increase in morphine ED50 values (Sprague Dawley rats; AM-251 (1.6 μg or 3.2 μg) co-administered with i.t. morphine for 5 days): completely blocked the increase in ED50 values | effect on the increase in morphine ED50 value (Sprague Dawley rats; acute paradigm, co-treatment of AM-251 with morphine): suppressed the increase in ED50 value | morphine ED50 value versus saline-only control (Sprague Dawley rats; acute paradigm, drug without the other drug: single morphine injection then saline, or AM-251 3.2 μg alone): did not change | effect on baseline antinociceptive responses (Sprague Dawley rats; i.t. injections of AM-251 alone, acute paradigm, either test): no effect | morphine ED50 value versus saline-only animals (Sprague Dawley rats; morphine days 1-5 discontinued, then saline (row morphine) or AM-251 alone (row AM-251) on days 6-10): comparable to saline-only

CN1CC[C@]23c4c5ccc(O)c4O[C@H]2[C@@H](O)C=C[C@H]3[C@H]1C5.O=S(=O)(O)O [morphine, Morphine sulphate]
increase in number of CGRP-immunopositive neurons compared to vehicle-treated controls ([2]; chronic morphine (20 μM) treatment for 5-days): approximately 57% | antinociceptive effect on daily injection for 10 days (Sprague Dawley rats; daily i.t. morphine (3.2 μg as printed) for 10 days, by day 5): progressive decline in morphine antinociception to baseline levels | time by which antinociceptive response returned to baseline (Sprague Dawley rats; [3]): ≤ 90 min | time of maximal antinociceptive response post-injection (Sprague Dawley rats; [3]): 30 min

C=CCN1CC[C@]23c4c5ccc(O)c4O[C@H]2C(=O)CC[C@@]3(O)[C@H]1C5 [naloxone]
effect on the morphine-induced increase in CGRP-immunopositive neurons ([2]; pre-treatment with naloxone 10 μM, morphine 20 μM): blocked
